Assay results from patent US20080132529A1, “Method of improving bioavailability for non-sedating barbiturates” (priority 2006, published 2008).
Where “and” joins values, the source holds several entries; their conditions need not be identical. Equal entries are not always repeated.

What was measured:
[1] = Phase I food-effect crossover pharmacokinetic study, single 400 mg oral dose of T2000 (DMMDPB), fasting vs fed; details: for Rate and extent of absorption when administered after a high fat, high calorie breakfast: fed vs fasting; for Rate and extent of absorption when administered after a high fat, high calorie breakfast / AUC(0-inf) / Cmax / half-life / Tmax / AUC0-t Ratio (Fasting/Fed) / T1/2 Ratio (Fasting/Fed) / Tmax Ratio (Fasting/Fed) / Cmax Ratio (Fasting/Fed) / AUC0-∞ Ratio (Fasting/Fed): single 400 mg oral dose of DMMDPB; for AUC(0-t) / AUC(0-inf) / Cmax / half-life / Tmax: male, human, plasma, po, 400 mg; for AUC(0-t): AUC0-t, plasma analyte after single 400 mg oral dose of DMMDPB; for AUC(0-t) / Cmax / Tmax / AUC0-t Ratio (Fasting/Fed) / Cmax Ratio (Fasting/Fed): n=23; for AUC(0-t) / AUC(0-inf): least-squares geometric mean; for AUC(0-inf): AUC0-∞; for AUC(0-inf) / half-life / AUC0-∞ Ratio (Fasting/Fed): n=18 for DMMDPB, n=20 for MMMDPB; for half-life / Tmax: arithmetic mean; for AUC0-t Ratio (Fasting/Fed): ratio fasting/fed of geometric means
Protocol: This was a single center, randomized, single dose, open-label, 2-way, food-effect crossover study to compare the rate and extent of absorption of T2000, administered as 4×100 mg capsules (for a total dose of 400 mg), under fasting and fed conditions. Subjects were confined to a clinical research facility from at least 11 hours prior to drug administration until after the 72.0-hour post-dose blood draw, in each period. Single oral doses were separated by a washout period of at least 21 days.
All subjects met the inclusion and exclusion criteria described in the protocol and were judged eligible for the study, based on medical history, demographic data (including sex, age, body weight [kg], height [cm], and BMI [kg/m2], medication history, physical examination, vital signs (blood pressure, respiratory rate, heart rate, and oral temperature), 12-lead ECG, brief neurological examination (including assessment of mental status, orientation, memory, arithmetic and spelling, eye movement, gait and coordination), opthalmology examination (lamp examination; performed within 3 months prior to the first dose), and clinical laboratory tests (hematology, biochemistry, urinalysis, HIV and hepatitis C [HCV] antibodies, and hepatitis B antigen [HBsAg]). […] Screening procedures took place within 28 days prior to Period 1 drug administration.
Subjects abstained from food or drink containing xanthine derivatives or xanthine-related compounds (e.g. coffee, tea, caffeine-containing sodas, colas, chocolate, or decaffeinated products) and energy drinks from 48 hours prior to drug administration, until the end of sample collection in each period; alcohol from 24 hours prior to drug administration, until the end of sample collection in each period, and grapefruit products (e.g. fresh, canned, or frozen); natural food supplements (including garlic as a supplement), and vitamins from 7 days prior to drug administration, until the end of sample collection in each period. Any subjects who felt dizzy or drowsy when they left the clinical facility were advised against performing activities requiring mental alertness, judgment, and physical coordination until they felt safe to do so.
Treatment A: The subjects fasted for at least 10 hours prior to drug administration.
Treatment B: After a supervised overnight fast of at least 10 hours, and 30 minutes before drug administration, subjects were served a standard high-fat, high-caloric breakfast of approximately 1000 calories (approximately 150 calories from protein, 250 calories from carbohydrates, and […]). […] Subjects were required to completely consume this breakfast within 30 minutes, and prior to drug administration. Subjects were dosed on the momrings of Apr. […] Subjects were administered the test or reference medication as a single oral dose of 4 capsules, each containing 100 mg of prodrug T2000 (total dose of 400 mg), with approximately 240 ml of water. Subjects were dosed as specified in the protocol, and subsequently fasted for a period of at least 4 hours. A mouth and hand check was performed to ensure the subjects had swallowed the study medication.
All blood samples were drawn into blood collection tubes (1×7 ml) containing EDTA K3 prior to drug administration and 0.500, 1.00, 2.00, 3.00, 4.00, 5.00, 6.00, 8.00, 10.0, 12.0, 15.0, 18.0, 24.0, 36.0, 48.0, 72.0, 96.0, and 120 hours post-dose in each period. All blood samples were collected via direct venipuncture.
Analysis of T-2000, MMMDPB and DPB were performed using High Performance Liquid Chromatographic Method with Tandem Mass. Spectrometry Detection. The analytical method was developed and validated.

[2] = Early pharmacokinetic studies in dogs, high fat meal vs customary dog food; assay type: in vivo
[3] = tested on: electroshock and chemoconvulsive seizures; details: animal studies; at doses which exhibited no neurological impairment; cited from earlier work
[4] = in vivo; cited from earlier work
[5] = Fed (high-fat breakfast 30 min before dose)

Row | Structure (SMILES) | Rate and extent of absorption when administered after a high fat, high calorie breakfast [1] | AUC(0-t) ([1]; Fasting, healthy subjects) [ng·h/mL] | AUC(0-t) [1, 5] [ng·h/mL] | AUC(0-inf) ([1]; Fasting) [ng·h/mL] | AUC(0-inf) ([1]; Fed) [ng·h/mL] | Cmax ([1]; Fasting) [ng/mL] | Cmax ([1]; Fed) [ng/mL] | half-life ([1]; T1/2, Fasting) [h] | half-life ([1]; T1/2, Fed) [h] | Tmax ([1]; Fasting) [h] | Tmax ([1]; Fed) [h] | AUC0-t Ratio (Fasting/Fed) [1] | T1/2 Ratio (Fasting/Fed) [1] [%] | Tmax Ratio (Fasting/Fed) [1] [%] | Cmax Ratio (Fasting/Fed) [1] | AUC0-∞ Ratio (Fasting/Fed) [1] [%] | Anticonvulsant activity against electroshock and chemoconvulsive seizures [3] | other results
1 | COCN1C(=O)N(COC)C(=O)C(c2ccccc2)(c2ccccc2)C1=O [DMMDPB, 1,3-dimethoxymethyl-5,5-diphenyl barbituric acid] | increased | 3100 | 8710 | 5320 | 10800 | 129 | 887 | 26.1 | 18.5 | 7.52 | 4.88 | 35.6% and 35.57% | 141.55 | 154.34 | 14.6% and 14.58% | 49.46 | anticonvulsant properties | Adverse events reported (total) ([1]; minor, occurred in both fed and fasting conditions, 23 subjects, single 400 mg oral doses): 35; Tolerability ([1]; single 400 mg oral dose, fed and fasting, healthy males): well tolerated; Absorption with a high fat meal compared with customary dog food [2]: more completely absorbed
2 | O=C1NC(=O)C(c2ccccc2)(c2ccccc2)C(=O)N1 [DPB, 5,5-diphenyl barbituric acid] | increased | 143000 | 219000 | 185000 | 271000 | 1750 | 2790 | 43 | 38.5 | 54.8 | 48.3 | 65.3% and 65.28% | 111.62 | 113.50 | 62.9% and 62.93% | 68.04 | anticonvulsant properties | –
3 | COCN1C(=O)NC(=O)C(c2ccccc2)(c2ccccc2)C1=O [MMMDPB, monomethoxymethyl-5,5-diphenyl barbituric acid] | increased | 36400 | 99500 | 54000 | 120000 | 898 | 2820 | 26.8 | 16.2 | 20.2 | 8.83 | 36.6% and 36.56% | 165.33 | 229.02 | 31.9% and 31.86% | 44.86 | – | –
4 | CCC1(c2ccccc2)C(=O)NC(=O)NC1=O [phenobarbital] | – | – | – | – | – | – | – | – | – | – | – | – | – | – | – | – | – | Serum and brain levels on administration with food [4]: significantly decreased
